Data reported in patent US20210177823A1, “NEUROMODULATING COMPOSITIONS AND RELATED THERAPEUTIC METHODS FOR THE TREATMENT OF CANCER” (Flagship Pioneering Innovations V, Inc., priority 2016, published 2021).
“Also recorded” adds a separate entry of the source.

Tests used:
[1] = test system: BXPC3 pancreatic cancer cells; assay: Cancer cell growth in low-serum spheroid culture, Cell Titer Glo readout; type: cell-based; conditions: at low micromolar concentration; tested 10 nM-10 uM
Procedure: (§1) Cancer cell lines were grown in appropriate cell culture medium. On day 0, cells were plated in black organogenix nanocult 96-well plates with low-bind honeycomb pattern. Cells were plated in a low serum medium to increase the dynamic range observable for growth promotion. Within three days spheroids were visible. On day 1 post plating, compounds were added at a range of doses to the cells, between mid-nanomolar and low micromolar, spanning at least a 100× dose range. On day 4 post plating, number of cells are quantified by staining with Cell Titer Glo and reading on a plate reader. We observed that adenosine at 10-200 μM enhances the growth of multiple pancreatic cancer cell lines (CFPAC, PANC-1, PL45, ASPC-1, CAPAN-1, CAPAN-2) by at least 10% increased signal over 24 hours than untreated cells. Upon follow-up of the adenosine pathway, we performed a similar assay with chemical antagonists of adenosine receptors at a range of concentrations between 10 nM-10 uM.

[2] = test system: NCI-H82 small cell lung cancer cells; assay: as above; type: cell-based; conditions: at low micromolar concentration; tested 10 nM-10 uM
Procedure: as §1

[3] = test system: patient-derived xenograft tumors from patient 5197; assay: SCLC PDX subcutaneous tumor with implanted microdose drug delivery device, immunohistochemistry (CC3, phospho-AKT); type: in vivo, nude mice; conditions: intratumoral device reservoir, 24 hours in situ; patient 5197 PDX
Procedure: (§2) Small cell lung cancer cells derived from a human donor (CrownBio, San Diego Calif.) were injected subcutaneously into the flanks of nude mice. Tumors were grown to a size of approximately 6-10 mm before device implantation.
(§3) Microdose drug delivery devices were manufactured as described in Jonas et al., Sci. Transl. Med. 7, 284ra57 (2015). Briefly, cylindrical, micro-scale devices with 0.82 (diameter)×4 mm (length) were manufactured from medical-grade Delrin acetyl resin blocks (DuPont) by micromachining (CNC Micromachining Center, Cameron). Circular reservoirs were shaped on the outer surface of devices in dimensions of 230 um (diameter)×250 um (depth). Drug-polymer mixtures were packed into device reservoirs using a tapered, metal needle (Electron Microscopy Sciences) until the reservoirs were completely filled.
Devices were implanted directly into the mouse tumor using a 19-gauge spinal biopsy needle (Angiotech) and a retractable needle obturator to push the device into the tissue. Devices containing the drugs remained in situ for 24 hours.
The flank tumor was excised and the tissue containing the device was fixed for 24 hours in 10% formalin and perfused with paraffin. This specimen was sectioned using a standard microtome and tissue sections were collected from each reservoir. Sections were antibody-stained by standard immunohistochemistry using antibodies against cleaved-caspase-3 (CC3), KI-67, and phospho-AKT (Cell Signaling) and scored using an ImageJ image (v1.48) analysis algorithm in a blinded manner.

[4] = test system: patient-derived xenograft tumors from patient 5217; assay: SCLC PDX subcutaneous tumor with implanted microdose drug delivery device, immunohistochemistry; type: in vivo, nude mice; conditions: patient 5217 PDX, ~10× lower DRD2 mRNA than patient 5197; device 24 hours in situ
Procedure: as §2, §3
Devices were implanted directly into the mouse tumor using a 19-gauge spinal biopsy needle (Angiotech) and a retractable needle obturator to push the device into the tissue. […]
The flank tumor was excised and the tissue containing the device was fixed for 24 hours in 10% formalin and perfused with paraffin. […] Sections were antibody-stained by standard immunohistochemistry using antibodies against cleaved-caspase-3 (CC3), KI-67, and phospho-AKT (Cell Signaling) and scored using an ImageJ image (v1.48) analysis algorithm in a blinded manner.

[5] = test system: Glioblastoma lines A172, LN-18, T98G, LN-229, U87 MG, and U118 MG; assay: Colony formation assay in glioblastoma cell lines (Cyto60 fluorescence); type: cell-based; conditions: 1 μM to 20 μM, day 9, LN-229, U87, U118
Procedure: Glioblastoma lines A172, LN-18, T98G, LN-229, U87 MG, and U118 MG were passaged in culture per manufacturer's recommendations.
On day 0 of the experiment, cells were plated in 24 well plates at a density of 500 cells per well in triplicate. On day 1, DRD2 antagonists haloperidol and L741,626 were added to the wells at a range of concentrations between 1 μM and 20 μM. Media was changed every three days. On day 9 of the experiment, cells were fixed with formalin and stained with Cyto60 (a nucleic acid stain). Fluorescence was read on a Licor-Odyssey imager to assess the number of viable cells in the assay.

[6] = test system: pancreatic cancer cell lines (CFPAC, PANC-1, PL45, ASPC-1, CAPAN-1, CAPAN-2); assay: Cancer cell growth in low-serum spheroid culture, Cell Titer Glo readout; type: cell-based; conditions: adenosine at 10-200 μM, over 24 hours
[7] = test system: MIAPaCa2 Fluc cells; assay: Orthotopic MIAPACA2 pancreatic cancer model, tumor weight at end of study; type: in vivo, Nude mice (Nu/Nu); conditions: daily IP, three weeks after initiation of dosing; for reduction in tumor weight at the end of study: compared to vehicle-treated group
Procedure: MIAPaCa2 Fluc cells were grown in DMEM tissue culture media with 10% fetal calf serum, 2.5% Horse Serum, 1% penicillin/streptomycin and Puromycin (20 ug/mL). On the day of implantation, cells were washed in PBS, trypsinized and resuspended at a density of 2×10^6 cells/ml in a Matrigel solution prior to being implanted into the pancreas a volume of 0.05 mL using a 25 G needle. Nude mice (Nu/Nu) were anesthetized and the pancreas exposed via peritoneal incision and physical displacement of the spleen. Cells were injected into the pancreas in a total volume of 0.05 mL and the surgical wound closed with VetBond. Bioluminescence was assessed by administration of D-luciferin and imaging on an IVIS system. Mice with leakage of bioluminescent signal immediately after surgery were removed from study. Mice were randomized into groups of equal mean bioluminescence approximately 14 days post-implant. […] One group of mice received haloperidol alone, a second group received gemcitabine chemotherapy (the standard of care for human pancreatic cancer treatment), and a third group received a combination of haloperidol and gemcitabine. For groups also receiving gemcitabine, gemcitabine was dosed 50 mg/kg IP daily. Tumor growth was determined bi-weekly with bioluminescent measurement. The study was terminated three weeks after initiation of drug dosing. At termination, mice were sacrificed and pancreas collected and weighed.

Q: Which “inhibition of growth of BXPC3 pancreatic cancer cells” value [1] does the source give for `CCCn1c(=O)c2[nH]c(C34CC5CC(CC3C5)C4)nc2n(CCC)c1=O` [KW3902] here?
A: inhibited the growth

Q: And the “inhibition of growth of NCI-H82 small cell lung cancer cells” value [2]?
A: inhibited the growth

Q: Which results are given for `OC1(c2ccc(Cl)cc2)CCN(Cc2c[nH]c3ccccc23)CC1` [L-741,626]?
A: cell killing as measured by CC3 positive tissue [3]: dose-dependent cell killing; phospho-AKT staining gradient (dopamine receptor signaling) [3]: negative gradient; impact of treatment on tumor [4]: at all not impacted; also recorded: not impacted at all; number of glioblastoma cells growing in culture compared to DMSO control [5]: reduce the number of glioblastoma cells

Q: `O=C(Cc1ccccc1)Nc1nc2ccc(Cl)cc2c2nc(-c3ccco3)nn12` [MRS-1220] was tested. Which “inhibition of growth of NCI-H82 small cell lung cancer cells” value [2] did it give?
A: inhibited the growth

Q: `Nc1ncnc2c1ncn2[C@@H]1O[C@H](CO)[C@@H](O)[C@H]1O` [adenosine] was tested. Which “enhancement of growth, increased signal than untreated cells” value [6] did it give?
A: at least 10%

Q: How did the “cell killing as measured by CC3 positive tissue” value [3] turn out when `N.N.[Cl][Pt][Cl]` [cisplatin] was run?
A: minimal cell killing

Q: Which “reduction in tumor weight at the end of study” value [7] does the source give for `Nc1ccn([C@@H]2O[C@H](CO)[C@@H](O)C2(F)F)c(=O)n1` [gemcitabine] here?
A: equivalent

Q: With `O=C(CCCN1CCC(O)(c2ccc(Cl)cc2)CC1)c1ccc(F)cc1` [haloperidol] as the compound, how does the “reduction in tumor weight at the end of study” value [7] read?
A: ~50%

Q: And the “tumor weight at the end of study” value ([7]; vehicle 300 mg)?
A: 150 mg

Q: And the “number of glioblastoma cells growing in culture compared to DMSO control” value [5]?
A: reduce the number of glioblastoma cells
